From patent US20260035387A1 (BIOGEN MA INC., priority 2022, published 2026)
pIC50: −log10 of the molar value.

Tested on: mutant Huntington (HTT) protein
Assay: HTT Mutant HTRF iPSC assay (mHTT protein lowering)
Type: cell-based
Settings: human iPSC derived from a HTT patient with a poly-Q49 mutation

SMILES	pIC50
Cc1cn2cc(NC(=O)c3cc4ncc(C5CCCCN5)nc4s3)cc(F)c2n1 (stereo not shown) [Compound 144, N-(8-fluoro-2-methylimidazo[1,2-a]pyridin-6-yl)-3-(piperidin-2-yl)thieno[2,3-b]pyrazine-6-carboxamide]	5.05 to 6.00
Cc1cn2cc(NC(=O)c3cc4ncc(C5CCNC5)nc4s3)cc(F)c2n1 (stereo not shown) [Compound 146, N-(8-fluoro-2-methylimidazo[1,2-a]pyridin-6-yl)-3-(pyrrolidin-3-yl)thieno[2,3-b]pyrazine-6-carboxamide]	> 7.00
Cc1cn2cc(NC(=O)c3cc4ncc(C5=CCNCC5)nc4s3)cc(F)c2n1 [Compound 147, N-(8-fluoro-2-methylimidazo[1,2-a]pyridin-6-yl)-3-(1,2,3,6-tetrahydropyridin-4-yl)thieno[2,3-b]pyrazine-6-carboxamide]	> 7.00
Cc1cn2cc(NC(=O)c3cc4ncc(C5CCNCC5)nc4s3)cc(F)c2n1 [Compound 148, N-(8-fluoro-2-methyl-imidazo[1,2-a]pyridin-6-yl)-3-(4-piperidyl)thieno[2,3-b]pyrazine-6-carboxamide]	> 7.00
Cc1cn2cc(NC(=O)c3cc4cnc(N5CC[C@@H](N(C)C)C5)nc4s3)cc(F)c2n1 [Compound 149, (R)-2-(3-(dimethylamino)pyrrolidin-1-yl)-N-(8-fluoro-2-methylimidazo[1,2-a]pyridin-6-yl)thieno[2,3-d]pyrimidine-6-carboxamide]	6.00 to 7.00
Cc1cn2cc(NC(=O)c3cc4cnc(N5CC[C@@H](N(C)C)C5)nc4s3)nc(C)c2n1 [Compound 150, (R)-2-(3-(dimethylamino)pyrrolidin-1-yl)-N-(2,8-dimethylimidazo[1,2-a]pyrazin-6-yl)thieno[2,3-d]pyrimidine-6-carboxamide]	6.00 to 7.00
Cc1cn2cc(NC(=O)c3cc4cnc(N5CC[C@H](N(C)C)C5)nc4s3)nc(C)c2n1 [Compound 151, (S)-2-(3-(dimethylamino)pyrrolidin-1-yl)-N-(2,8-dimethylimidazo[1,2-a]pyrazin-6-yl)thieno[2,3-d]pyrimidine-6-carboxamide]	5.05 to 6.00
Cc1cn2cc(NC(=O)c3cc4cnc(N5CC[C@H](N(C)C)C5)nc4s3)cc(F)c2n1 [Compound 152, 2-[(3S)-3-(dimethylamino)pyrrolidin-1-yl]-N-(8-fluoro-2-methyl-imidazo[1,2-a]pyridin-6-yl)thieno[2,3-d]pyrimidine-6-carboxamide]	6.00 to 7.00
Cc1cn2cc(C(=O)Nc3cc4ccc(N5CC[C@H](N(C)C)C5)nc4s3)cc(F)c2n1 [Compound 153, N-[6-[(3S)-3-(dimethylamino)pyrrolidin-1-yl]thieno[2,3-b]pyridin-2-yl]-8-fluoro-2-methyl-imidazo[1,2-a]pyridine-6-carboxamide]	> 7.00
Cc1cn2cc(NC(=O)c3cc4ccc(OC5CCC(N(C)C)C5)nc4s3)cc(F)c2n1 (stereo not shown) [Compound 155, 6-((3-(dimethylamino)cyclopentyl)oxy)-N-(8-fluoro-2-methylimidazo[1,2-a]pyridin-6-yl)thieno[2,3-b]pyridine-2-carboxamide]	> 7.00
Cc1cn2cc(NC(=O)c3cc4ccc(OC5C[C@@H](C)N[C@H](C)C5)nc4s3)cc(F)c2n1 (stereo partly shown) [Compound 157]	6.00 to 7.00
Cc1cn2cc(NC(=O)c3cc4ccc(OC5CCC6(CCN(C)CC6)C5)nc4s3)cc(F)c2n1 (stereo not shown) [Compound 160, N-(8-fluoro-2-methylimidazo[1,2-a]pyridin-6-yl)-6-((8-methyl-8-azaspiro[4.5]decan-2-yl)oxy)thieno[2,3-b]pyridine-2-carboxamide]	6.00 to 7.00
Cc1cn2cc(NC(=O)c3cc4ccc(OC5CC6(CCN(C)CC6)C5)nc4s3)cc(F)c2n1 [Compound 162, N-(8-fluoro-2-methylimidazo[1,2-a]pyridin-6-yl)-6-((7-methyl-7-azaspiro[3.5]nonan-2-yl)oxy)thieno[2,3-b]pyridine-2-carboxamide]	6.00 to 7.00
Cc1cn2cc(NC(=O)c3cc4nc(C5CCN(C)CC5)ccc4o3)cc(F)c2n1 [Compound 163, N-(8-fluoro-2-methyl-imidazo[1,2-a]pyridin-6-yl)-5-(1-methyl-4-piperidyl)furo[3,2-b]pyridine-2-carboxamide]	6.00 to 7.00
COc1cc2nn(C)cc2cc1NC(=O)c1cc2nc(N3CCC(N4CCC4)C3)ccc2o1 (stereo not shown) [Compound 164, 5-(3-(azetidin-1-yl)pyrrolidin-1-yl)-N-(6-methoxy-2-methyl-2H-indazol-5-yl)furo[3,2-b]pyridine-2-carboxamide]	6.00 to 7.00
Cc1cn2cc(NC(=O)c3cc4nc(N5CCN(C)CC5)ccc4o3)cc(F)c2n1 [Compound 165, N-(8-fluoro-2-methylimidazo[1,2-a]pyridin-6-yl)-5-(4-methylpiperazin-1-yl)furo[3,2-b]pyridine-2-carboxamide]	> 7.00
Cc1cn2cc(NC(=O)c3cc4nc(N5CC[C@@H](N(C)C)C5)ccc4o3)cc(F)c2n1 [Compound 166, (R)-5-(3-(dimethylamino)pyrrolidin-1-yl)-N-(8-fluoro-2-methylimidazo[1,2-a]pyridin-6-yl)furo[3,2-b]pyridine-2-carboxamide]	> 7.00

SMILES	pIC50
COc1cc2nn(C)cc2cc1NC(=O)c1cc2nc(N3CCC4(CCCN4C)C3)ccc2o1 (stereo not shown) [Compound 167, N-(6-methoxy-2-methyl-2H-indazol-5-yl)-5-(1-methyl-1,7-diazaspiro[4.4]nonan-7-yl)furo[3,2-b]pyridine-2-carboxamide]	> 7.00
Cc1cn2cc(NC(=O)c3cc4nc(N5CCNCC5)ccc4o3)cc(F)c2n1 [Compound 169, N-(8-fluoro-2-methylimidazo[1,2-a]pyridin-6-yl)-5-(piperazin-1-yl)furo[3,2-b]pyridine-2-carboxamide]	> 7.00
COc1cc2nn(C)cc2cc1NC(=O)c1cc2nc(N3CCC(N(C)C)C3)ccc2o1 (stereo not shown) [Compound 170, 5-(3-(dimethylamino)pyrrolidin-1-yl)-N-(6-methoxy-2-methyl-2H-indazol-5-yl)furo[3,2-b]pyridine-2-carboxamide]	> 7.00
COc1cn2nc(C)cc2cc1NC(=O)c1cc2nc(N3C[C@@H]4CN(C)C[C@@H]43)ccc2o1 [Compound 171, N-(6-methoxy-2-methylpyrazolo[1,5-a]pyridin-5-yl)-5-((1S,5R)-3-methyl-3,6-diazabicyclo[3.2.0]heptan-6-yl)furo[3,2-b]pyridine-2-carboxamide]	6.00 to 7.00
COc1cc2nn(C)cc2cc1NC(=O)c1cc2nc(N3CC[C@@H](N4CCC4)C3)ccc2o1 [Compound 172, (R)-5-(3-(azetidin-1-yl)pyrrolidin-1-yl)-N-(6-methoxy-2-methyl-2H-indazol-5-yl)furo[3,2-b]pyridine-2-carboxamide]	6.00 to 7.00
COc1cc2nn(C)cc2cc1NC(=O)c1cc2nc(N3CC[C@H](N4CCC4)C3)ccc2o1 [Compound 173, (S)-5-(3-(azetidin-1-yl)pyrrolidin-1-yl)-N-(6-methoxy-2-methyl-2H-indazol-5-yl)furo[3,2-b]pyridine-2-carboxamide]	6.00 to 7.00
Cc1cn2cc(NC(=O)c3cc4ccc(C5CCNC(C)(C)C5)nc4s3)cc(F)c2n1 (stereo not shown) [Compound 176, 6-(2,2-dimethylpiperidin-4-yl)-N-(8-fluoro-2-methylimidazo[1,2-a]pyridin-6-yl)thieno[2,3-b]pyridine-2-carboxamide]	> 7.00
COc1cc2nn(C)cc2cc1NC(=O)c1cc2ccc(C3CCN(C)CC3)nc2s1 [Compound 178, N-(6-methoxy-2-methyl-2H-indazol-5-yl)-6-(1-methylpiperidin-4-yl)thieno[2,3-b]pyridine-2-carboxamide]	> 7.00
Cc1cn2cc(NC(=O)c3cc4ccc(C5CNC(C)C5)nc4s3)cc(F)c2n1 (stereo not shown) [Compound 179, N-(8-fluoro-2-methylimidazo[1,2-a]pyridin-6-yl)-6-(5-methylpyrrolidin-3-yl)thieno[2,3-b]pyridine-2-carboxamide]	> 7.00
Cc1cn2cc(NC(=O)c3cc4ccc(C5CCC6(CNC6)C5)nc4s3)cc(F)c2n1 (stereo not shown) [Compound 182, N-(8-fluoro-2-methylimidazo[1,2-a]pyridin-6-yl)-6-(2-azaspiro[3.4]octan-6-yl)thieno[2,3-b]pyridine-2-carboxamide]	6.00 to 7.00
CCN1CCN(c2ccc3cc(C(=O)Nc4cc5cc(C)nn5cc4OC)sc3n2)CC1 [Compound 183, 6-(4-ethylpiperazin-1-yl)-N-(6-methoxy-2-methylpyrazolo[1,5-a]pyridin-5-yl)thieno[2,3-b]pyridine-2-carboxamide]	> 7.00
COc1nc(NC(=O)c2cc3ccc(C4CCN(C)CC4)nc3s2)cn2cc(C)nc12 [Compound 184, N-(8-methoxy-2-methylimidazo[1,2-a]pyrazin-6-yl)-6-(1-methylpiperidin-4-yl)thieno[2,3-b]pyridine-2-carboxamide]	> 7.00
Cc1cn2cc(NC(=O)c3cc4ccc(N5C[C@@H]6C[C@H]5CN6C(C)C)nc4s3)cc(F)c2n1 [Compound 189, N-(8-fluoro-2-methylimidazo[1,2-a]pyridin-6-yl)-6-((1S,4S)-5-isopropyl-2,5-diazabicyclo[2.2.1]heptan-2-yl)thieno[2,3-b]pyridine-2-carboxamide]	> 7.00
COc1cn2nc(C)cc2cc1NC(=O)c1cc2ccc(N3CCC(N(C)C)C3)nc2s1 (stereo not shown) [Compound 190, 6-(3-(dimethylamino)pyrrolidin-1-yl)-N-(6-methoxy-2-methylpyrazolo[1,5-a]pyridin-5-yl)thieno[2,3-b]pyridine-2-carboxamide]	> 7.00
COc1nc(NC(=O)c2cc3ccc(N4CCC(N(C)C)C4)nc3s2)cn2cc(C)nc12 (stereo not shown) [Compound 191, 6-(3-(dimethylamino)pyrrolidin-1-yl)-N-(8-methoxy-2-methylimidazo[1,2-a]pyrazin-6-yl)thieno[2,3-b]pyridine-2-carboxamide]	> 7.00
CN(C)[C@@H]1CCN(c2ccc3cc(C(=O)Nc4cc(F)c5nn(C)cc5c4)sc3n2)C1 [Compound 192, (R)-6-(3-(dimethylamino)pyrrolidin-1-yl)-N-(7-fluoro-2-methyl-2H-indazol-5-yl)thieno[2,3-b]pyridine-2-carboxamide]	> 7.00
Cc1cn2cc(NC(=O)c3cc4ccc(N5CCNC6(CC6)C5)nc4s3)nc(C)c2n1 [Compound 193, N-(2,8-dimethylimidazo[1,2-a]pyrazin-6-yl)-6-(4,7-diazaspiro[2.5]octan-7-yl)thieno[2,3-b]pyridine-2-carboxamide]	> 7.00
